Data reported in patent US7879914B2, “Methods for treating viral infections using polyamine analogs” (Pathlogica LLC, priority 2005, dated 2011).

How the values were obtained:
[1] = patients, Int. J. Cancer 26, 571 (1980); cited from earlier work
[2] = test system: HIV proviral DNA; experiment: HIV proviral load after exposure of mononuclear cells in culture (Example 7); type: cell-based
Experimental: Mononuclear cells from HIV infected individuals were isolated and exposed to PA-001 in culture under non-adherent conditions for five days. The cells were then separated into CD3+ and CD14+ fractions via antibody-coated magnetic beads using a Miltenyi apparatus. The “-/-” samples represent flow thru after CD3+ and CD14+ cells were removed. Genomic DNA was prepared and then amplified with HIV specific primers and primers homologous to the single copy gene cJun. Results with HIV specific primers were normalized to those obtained with cJun. The number of HIV DNA copies per cellular DNA equivalent after exposure of mononuclear cell cultures from HIV infected individuals to PA-001 under non-adherent conditions for five days is shown in FIG. 7. Results with HIV specific primers were normalized to those obtained with cJun. Each bar represents the mean of three separate determinations. The error bar indicates one standard deviation from the mean. The numbers under the sample designations indicate the % of CD16+ monocytes killed by PA-001. ND=not done.

**Q.** What does the source list for `CC(/C=N/NC(=N)N)=N\NC(=N)N` [MGBG]?
**A.** toxicity in an anti-cancer regimen [1]: unacceptably toxic; HIV proviral load in cells that neither bound to CD14 or CD3 antibodies ([2]; FIG. 7B): effective in reducing; yield of HIV DNA in T cells ([2]; five days, CD3+ fraction): generally decreased slightly; HIV proviral load in CD14+ cells ([2]; five days, non-adherent conditions): significant decreases
